The subject of assay [1] is MCF-7 cells. As to the kind of experiment: Breast Cancer Cell Viability Assays (MCF-7, CellTiter-Glo). The assay is classed as cell-based. As to conditions: 5 days' compound exposure; for IC50: Homo sapiens, MCF7, 120 h. In outline:
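Percent viability, background-subtracted against untreated wells, was taken from CellTiter-Glo luminescence after 5 days' exposure of MCF-7 cells. Compounds were tested at eleven semilog concentrations, final 0.3–0.000003 μM, in RPMI containing 10% FBS.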
(In ATP-based viability assays light output follows the ATP content of the culture.)

The target of assay [2] is T1, ER-α in MCF-7 cells (Homo sapiens, UniProt P03372).
T1 construct: endogenous in cells; host or cells: MCF-7
T1 sequence (P03372 1-595): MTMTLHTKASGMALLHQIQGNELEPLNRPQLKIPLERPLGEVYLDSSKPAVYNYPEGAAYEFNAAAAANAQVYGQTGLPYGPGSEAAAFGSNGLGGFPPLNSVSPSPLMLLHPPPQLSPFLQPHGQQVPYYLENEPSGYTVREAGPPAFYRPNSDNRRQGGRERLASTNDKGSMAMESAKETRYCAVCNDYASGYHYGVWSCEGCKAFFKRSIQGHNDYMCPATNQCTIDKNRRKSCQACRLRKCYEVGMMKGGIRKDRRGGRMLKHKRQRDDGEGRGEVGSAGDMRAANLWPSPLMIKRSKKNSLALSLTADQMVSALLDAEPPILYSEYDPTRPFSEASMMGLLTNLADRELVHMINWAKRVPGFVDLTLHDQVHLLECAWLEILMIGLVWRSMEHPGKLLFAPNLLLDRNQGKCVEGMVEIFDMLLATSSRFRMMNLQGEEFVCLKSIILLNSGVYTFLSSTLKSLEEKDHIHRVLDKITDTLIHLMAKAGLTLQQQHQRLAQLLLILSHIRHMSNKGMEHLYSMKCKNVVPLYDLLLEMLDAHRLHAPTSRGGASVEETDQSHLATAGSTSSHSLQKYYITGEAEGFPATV
Put plainly: Breast Cancer Cell ER-α In Cell Western Assay (SP1). The assay is classed as cell-based. As to conditions: 4 or 24 hr post compound addition; for Emax: MCF7, SP1 antibody, read-out: ER-α In Cell Western Assay (SP1) Max Response; for DC50: SP1 antibody, read-out: ER-α In Cell Western Assay (SP1) IC50. In outline:
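ER-α levels quantified by in-cell western: SP1 signal normalised to DRAQ5 DNA stain, relative to untreated cells (% ER). Compounds at 0.3–0.000003 μM final, 11-point semilog series, 4 or 24 h exposure of MCF-7 cells grown in charcoal-stripped serum.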

A word on the IC50: it is the midpoint of a concentration-inhibition curve. Read a low IC50 as greater potency. On to `Cc1cncc(/C(=C(\c2ccc(/C=C/C(=O)O)cc2)c2ccc3[nH]nc(F)c3c2)C2CCC2)c1` [Example 129, (E)-3-(4-((E)-2-Cyclobutyl-1-(3-fluoro-1H-indazol-5-yl)-2-(5-methylpyridin-3-yl)vinyl)phenyl)acrylic acid], for which, in assay [1], the “MCF7 Viability Assay Max Response” value is reported as “++ (++ = a single % value ≧ 40%)” and the IC50 is at most 100 nM. In assay [2], the Emax was at least 40% and the DC50 was at most 100 nM.
With `O=C(O)/C=C/c1ccc(/C(=C(\c2cncc(Cl)c2)C2CCC2)c2ccc3[nH]nc(F)c3c2)cc1` [Example 130, (E)-3-(4-((E)-2-(5-Chloropyridin-3-yl)-2-cyclobutyl-1-(3-fluoro-1H-indazol-5-yl)vinyl)phenyl)acrylic acid], in assay [1], the “MCF7 Viability Assay Max Response” value was “++ (++ = a single % value ≧ 40%)” and the IC50 is at most 100 nM. Also, in assay [2], the Emax was at least 40% and the DC50 was at most 100 nM.
In the case of `O=C(O)/C=C/c1ccc(/C(=C(\c2cncc(F)c2)C2CCC2)c2ccc3[nH]nc(F)c3c2)cc1` [Example 131, (E)-3-(4-((E)-2-Cyclobutyl-1-(3-fluoro-1H-indazol-5-yl)-2-(5-fluoropyridin-3-yl)vinyl)phenyl)acrylic acid], in assay [1], the “MCF7 Viability Assay Max Response” value is listed as “++ (++ = a single % value ≧ 40%)” and the IC50 is at most 100 nM. In assay [2], the Emax is at least 40% and the DC50 is at most 100 nM.
For the compound `COc1cncc(/C(=C(\c2ccc(/C=C/C(=O)O)cc2)c2ccc3[nH]nc(F)c3c2)C2CCC2)c1` [Example 132, (E)-3-(4-((E)-2-Cyclobutyl-1-(3-fluoro-1H-indazol-5-yl)-2-(5-methoxypyridin-3-yl)vinyl)phenyl)acrylic acid], in assay [1], the “MCF7 Viability Assay Max Response” value is given as “++ (++ = a single % value ≧ 40%)” and the IC50 was at most 100 nM. For the same compound, in assay [2], the Emax is at least 40% and the DC50 was at most 100 nM.
`COc1cc(C)ncc1/C(=C(\c1ccc(/C=C/C(=O)O)cc1)c1ccc2[nH]nc(F)c2c1)C1CCC1` [Example 133, (E)-3-(4-((E)-2-Cyclobutyl-1-(3-fluoro-1H-indazol-5-yl)-2-(4-methoxy-6-methylpyridin-3-yl)vinyl)phenyl)acrylic acid]: in assay [1], the “MCF7 Viability Assay Max Response” value is given as “++ (++ = a single % value ≧ 40%)” and the IC50 is at most 100 nM. Further, in assay [2], the Emax is at least 40% and the DC50 was at most 100 nM.
`Cc1nc(/C=C/C(=O)O)ccc1/C(=C(\c1ccccc1)C1CCC1)c1ccc2[nH]nc(F)c2c1` [Example 134, (E)-3-(5-((Z)-2-Cyclobutyl-1-(3-fluoro-1H-indazol-5-yl)-2-phenylvinyl)-6-methylpyridin-2-yl)acrylic acid]: in assay [1], the “MCF7 Viability Assay Max Response” value is recorded as “++ (++ = a single % value ≧ 40%)” and the IC50 is at most 100 nM. In assay [2], the Emax is at least 40% and the DC50 was at most 100 nM.
For `Cc1cc(/C(=C(\c2ccccc2)C2CCC2)c2ccc3[nH]nc(F)c3c2)cnc1/C=C/C(=O)O` [Example 135, (E)-3-(5-((Z)-2-Cyclobutyl-1-(3-fluoro-1H-indazol-5-yl)-2-phenylvinyl)-3-methylpyridin-2-yl)acrylic acid], in assay [1], the “MCF7 Viability Assay Max Response” value is “++ (++ = a single % value ≧ 40%)” and the IC50 was above 100 nM. Also, in assay [2], the Emax is at least 40% and the DC50 is at most 100 nM.
On to `COc1ncc(/C(=C(\c2ccc(/C=C/C(=O)O)cc2)c2ccc3[nH]nc(F)c3c2)C2CCC2)cc1Cl` [Example 136, (E)-3-(4-((E)-2-(5-Chloro-6-methoxypyridin-3-yl)-2-cyclobutyl-1-(3-fluoro-1H-indazol-5-yl)vinyl)phenyl)acrylic acid], for which, in assay [1], the “MCF7 Viability Assay Max Response” value is given as “++ (++ = a single % value ≧ 40%)” and the IC50 is at most 100 nM. Moreover, in assay [2], the Emax was at least 40% and the DC50 is at most 100 nM.
Take `COc1ncc(/C(=C(\c2ccc(/C=C/C(=O)O)cc2)c2ccc3[nH]nc(F)c3c2)C2CCC2)cc1F` [Example 137, (E)-3-(4-((E)-2-Cyclobutyl-1-(3-fluoro-1H-indazol-5-yl)-2-(5-fluoro-6-methoxypyridin-3-yl)vinyl)phenyl)acrylic acid]: in assay [1], the “MCF7 Viability Assay Max Response” value is recorded as “++ (++ = a single % value ≧ 40%)” and the IC50 is at most 100 nM. In addition, in assay [2], the Emax is at least 40% and the DC50 was at most 100 nM.
On to `COc1ccc(/C(=C(\c2ccc(/C=C/C(=O)O)cc2)c2ccc3[nH]nc(F)c3c2)C2CCC2)cn1` [Example 138, (E)-3-(4-((E)-2-Cyclobutyl-1-(3-fluoro-1H-indazol-5-yl)-2-(6-methoxypyridin-3-yl)vinyl)phenyl)acrylic acid], for which, in assay [1], the “MCF7 Viability Assay Max Response” value is “++ (++ = a single % value ≧ 40%)” and the IC50 was at most 100 nM. For the same compound, in assay [2], the Emax is at least 40% and the DC50 is at most 100 nM.
With `CC/C(=C(/c1ccc(/C=C/C(=O)O)cc1)c1cccc2[nH]nc(F)c12)c1cnc(OC)cc1C` [Example 139, (E)-3-(4-((E)-1-(3-Fluoro-1H-indazol-4-yl)-2-(6-methoxy-4-methylpyridin-3-yl)but-1-en-1-yl)phenyl)acrylic acid], in assay [1], the “MCF7 Viability Assay Max Response” value is on record as “++ (++ = a single % value ≧ 40%)” and the IC50 was at most 100 nM. In assay [2], the Emax is at least 40% and the DC50 is at most 100 nM.
For the compound `COc1cc(C)c(/C(=C(/c2ccc3[nH]nc(F)c3c2)c2ccc(/C=C/C(=O)O)nc2C)C2CCC2)cn1` [Example 140, (E)-3-(5-((Z)-2-Cyclobutyl-1-(3-fluoro-1H-indazol-5-yl)-2-(6-methoxy-4-methylpyridin-3-yl)vinyl)-6-methylpyridin-2-yl)acrylic acid], in assay [1], the “MCF7 Viability Assay Max Response” value is recorded as “++ (++ = a single % value ≧ 40%)” and the IC50 is at most 100 nM. In assay [2], the Emax is at least 40% and the DC50 is at most 100 nM.
Regarding `O=C(O)/C=C/c1ccc(/C(=C(\c2ccccn2)C2CCC2)c2ccc3[nH]nc(F)c3c2)cc1` [Example 141, (E)-3-(4-((E)-2-Cyclobutyl-1-(3-fluoro-1H-indazol-5-yl)-2-(pyridin-2-yl)vinyl)phenyl)acrylic acid], in assay [1], the “MCF7 Viability Assay Max Response” value is recorded as “++ (++ = a single % value ≧ 40%)” and the IC50 is at most 100 nM. In assay [2], the Emax was at least 40% and the DC50 was at most 100 nM.
For `O=C(O)/C=C/c1ccc(/C(=C(\c2ncccc2F)C2CCC2)c2ccc3[nH]nc(F)c3c2)cc1` [Example 142, (E)-3-(4-((E)-2-Cyclobutyl-1-(3-fluoro-1H-indazol-5-yl)-2-(3-fluoropyridin-2-yl)vinyl)phenyl)acrylic acid], in assay [1], the “MCF7 Viability Assay Max Response” value is “++ (++ = a single % value ≧ 40%)” and the IC50 is at most 100 nM. Further, in assay [2], the Emax was at least 40% and the DC50 was at most 100 nM.
With `O=C(O)/C=C/c1ccc(/C(=C(\c2ncccc2Cl)C2CCC2)c2ccc3[nH]nc(F)c3c2)cc1` [Example 143, (E)-3-(4-((E)-2-(3-Chloropyridin-2-yl)-2-cyclobutyl-1-(3-fluoro-1H-indazol-5-yl)vinyl)phenyl)acrylic acid], in assay [1], the “MCF7 Viability Assay Max Response” value is reported as “++ (++ = a single % value ≧ 40%)” and the concentration for half-maximal inhibition (IC50) is at most 100 nM. Moreover, in assay [2], the Emax was at least 40% and the DC50 is at most 100 nM.
Take `Cc1cccnc1/C(=C(\c1ccc(/C=C/C(=O)O)cc1)c1ccc2[nH]nc(F)c2c1)C1CCC1` [Example 144, (E)-3-(4-((E)-2-Cyclobutyl-1-(3-fluoro-1H-indazol-5-yl)-2-(3-methylpyridin-2-yl)vinyl)phenyl)acrylic acid]: in assay [1], the “MCF7 Viability Assay Max Response” value is listed as “++ (++ = a single % value ≧ 40%)” and the IC50 was at most 100 nM. Also, in assay [2], the Emax is at least 40% and the DC50 is at most 100 nM.
Turning to `O=C(O)/C=C/c1ccc(/C(=C(\c2ncccc2C(F)(F)F)C2CCC2)c2ccc3[nH]nc(F)c3c2)cc1` [Example 145, (E)-3-(4-((E)-2-Cyclobutyl-1-(3-fluoro-1H-indazol-5-yl)-2-(3-(trifluoromethyl)pyridin-2-yl)vinyl)phenyl)acrylic acid], in assay [1], the “MCF7 Viability Assay Max Response” value was “++ (++ = a single % value ≧ 40%)” and the IC50 was at most 100 nM. For the same compound, in assay [2], the Emax was at least 40% and the DC50 was at most 100 nM.
Regarding `O=C(O)/C=C/c1ccc(/C(=C(\c2ncc(Cl)cc2Cl)C2CCC2)c2ccc3[nH]nc(F)c3c2)cc1` [Example 146, (E)-3-(4-((E)-2-Cyclobutyl-2-(3,5-dichloropyridin-2-yl)-1-(3-fluoro-1H-indazol-5-yl)vinyl)phenyl)acrylic acid], in assay [1], the “MCF7 Viability Assay Max Response” value is recorded as “++ (++ = a single % value ≧ 40%)” and the half-maximal inhibitory concentration (IC50) was at most 100 nM. For the same compound, in assay [2], the Emax is at least 40% and the DC50 is at most 100 nM.

The record behind these values is patent US9499538B2, “Estrogen receptor modulators and uses thereof” (Seragon Pharmaceuticals, Inc., priority 2012, dated 2016).
